{"source": "patent US11921105B2", "about": "“Method for identifying positive allosteric modulators for odorant receptors” (FIRMENICH SA, priority 2017, dated 2024)", "key": {"[1]": {"molecular_target": "T1, Olfr1440 (Mus musculus, UniProt Q8VFV4)", "T1 construct": "expressed in transfected cells", "T1 sequence (Q8VFV4 1-315)": "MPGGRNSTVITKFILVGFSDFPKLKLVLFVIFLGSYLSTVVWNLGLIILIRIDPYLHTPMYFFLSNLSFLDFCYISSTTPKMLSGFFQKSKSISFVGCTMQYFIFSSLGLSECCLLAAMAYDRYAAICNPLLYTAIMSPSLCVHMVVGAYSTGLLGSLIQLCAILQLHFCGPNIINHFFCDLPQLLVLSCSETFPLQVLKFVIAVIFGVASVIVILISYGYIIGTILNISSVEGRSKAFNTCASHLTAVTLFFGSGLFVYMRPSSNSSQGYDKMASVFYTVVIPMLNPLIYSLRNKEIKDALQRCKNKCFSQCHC", "experiment": "Olfr1440 MUSCENONE®-induced activation in the presence of enhancer (control)", "format": "cell-based", "conditions": "FIG. 5", "description": "Furthermore and as a control, a similar experiment was performed on the mouse MUSCENONE® responsive odorant receptor Olfr1440, the ortholog of OR5AN1."}, "[2]": {"test_system": "human panelists", "experiment": "Human MUSCENONE® odor detection threshold (ODT), forced-choice triangle tests with background odor", "format": "in vivo", "conditions": "background compound at 0.1%; 2/3 correct responses", "description": "Sensitivity of human individuals to MUSCENONE® was evaluated by performing an odor detection threshold (ODT) test. The ODT test consisted of identifying the concentration for which 50%, preferably 66%, of the panelists are able to determine which of three containers contains the target compound MUSCENONE® in a forced-choice triangle tests. Two tests were performed to calculate the ODT in mixtures containing MUSCENONE® plus a perceivable background odor of chemically similar molecules a) the enhancer tridecylenic aldehyde and b) the non-enhancing volatile compound, nonanal.\n27 panelists were given a series of triangle tests with increasing concentration of MUSCENONE® in the presence of nonanal at a concentration of 0.1%. Within each triangle test, the three samples contained nonanal at 0.1% and one sample also contained MUSCENONE®. In each triangle test, the panelists were asked to identify the one sample that was different from the other two samples. The ODT was calculated by fitting a non-linear regression model onto the data and calculating the MUSCENONE® concentration at which the proportion of correct responses was equal to 2/3 (66%, the midpoint between chance rate 1/3 and all correct answers 1). […]"}, "[3]": {"molecular_target": "T2, OR5AN1 olfactory receptor (Homo sapiens, UniProt Q8NGI8)", "T2 construct": "FLAG (N); Rho (first 20 aa of bovine rhodopsin) (N); expressed in transfected cells", "T2 sequence (Q8NGI8 1-311)": "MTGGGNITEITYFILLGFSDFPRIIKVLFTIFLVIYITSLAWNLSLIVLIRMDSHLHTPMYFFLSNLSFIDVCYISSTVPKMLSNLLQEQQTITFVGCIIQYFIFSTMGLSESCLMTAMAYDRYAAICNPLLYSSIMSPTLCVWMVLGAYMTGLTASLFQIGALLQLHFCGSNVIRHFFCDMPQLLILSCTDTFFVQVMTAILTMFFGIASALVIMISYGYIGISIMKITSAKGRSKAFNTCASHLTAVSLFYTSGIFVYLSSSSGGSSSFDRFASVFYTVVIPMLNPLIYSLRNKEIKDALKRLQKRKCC", "experiment": "OR5AN1 dose-response of musk agonist with and without modulator, and of candidate alone (EC50 shift, span)", "format": "cell-based", "description": "15 candidates, marked as “enhancement” in Table 2 were identified. Strikingly, 80% of these putative enhancers (12/15) belonged to the same class of chemicals: unsaturated aliphatic aldehydes. Next, two parallel dose-response experiments to confirm the true enhancement properties of the potential candidates were performed. First, a dose-response of each individual candidate was performed to determine if it was an agonist by itself. Second, a MUSCENONE® dose-response curve in the presence and absence of a 250 μM concentration of the putative modulator was assessed for EC50 shifts.\nDose response curves to MUSCENONE® were obtained in the presence of 250 μM of each compound and compared to a dose-response curve of MUSCENONE® alone. The resulting enhancement was quantified by means of EC50-fold shift (potency increase) and the efficacy span ratio (efficacy increase).\nThe EC50-fold shift was obtained by […]. The span ratio was obtained by dividing the span of MUSCENONE®+compound by the reference span of MUSCENONE® alone. Specifically, diverse aliphatic α-β mono- or poly-unsaturated molecules have been compared."}}}
{"compound": "CCCCCCCCCC/C=C/C=O", "note": "[TDA, tridecylenic aldehyde]", "values": [{"measurement": "enhancement of Olfr1440 MUSCENONE®-induced activity", "setting": "[1]", "result": "did not enhance"}, {"measurement": "MUSCENONE® ODT value when mixed with the compound", "setting": "[2]", "result": 0.09, "unit": "%"}, {"measurement": "activation of OR5AN1 by the compound by itself", "setting": "[3]; compound alone", "result": "did not activate"}, {"measurement": "activation as % of the MUSCENONE® activation window", "setting": "[3]; compound alone, above approximately 100 μM", "result": "less than 8%"}, {"measurement": "maximal activation level (span) of MUSCENONE®", "setting": "[3]; enhancer at 250 μM", "result": "increased span"}]}
